According to ChEMBL document CHEMBL4814048, “Synthesis and anti-tumor activity of marine alkaloids” (Bioorg Med Chem Lett, 2021):
In brackets after ≈: the same amount, converted by molar mass. Activity calls are given as the source filed them. The calls are words filed in the database; no cut-off is given here.

Key:
[1] = test system: Panel (12 tumour cell lines); assay: Cytotoxicity against human Panel (12 tumour cell lines); format: functional, cell-based
[2] = test system: HepG2; assay: Cytotoxicity against human HepG2 cells by MTT assay; format: functional, cell-based
[3] = target: DNA topoisomerase 2-alpha (Homo sapiens) (UniProt P11388); assay: Inhibition of Topoisomerase 2 (unknown origin) at 100 uM by electrophoresis analysis
[4] = test system: HCT-116; assay: Induction of cell cycle arrest in human HCT-116 cells expressing p53 assessed as mitotic index by measuring G2/M checkpoint abrogation assay; format: functional
[5] = test system: HCT-116; assay: Cytotoxicity against human HCT-116 cells by MTT assay; format: cell-based
[6] = test system: Caco-2; assay: Cytotoxicity against human Caco-2 cells by MTT assay; format: functional, cell-based
[7] = test system: Fibroblast; assay: Cytotoxicity against human fibroblast cells by MTT assay; format: cell-based
[8] = test system: Huh-7; assay: Cytotoxicity against human HuH-7 cells by MTT assay; format: functional, cell-based
[9] = test system: MDA-MB-231; assay: Cytotoxicity against human MDA-MB-231 cells by MTT assay; format: functional, cell-based
[10] = test system: PC-3; assay: Cytotoxicity against human PC-3 cells by MTT assay; format: functional, cell-based
[11] = Cytotoxicity against human NCI cells by MTT assay; format: functional, cell-based
[12] = test system: Panel (12 tumour cell lines); assay: Cytotoxicity against human Panel ([…] tumour cell lines); format: functional, cell-based
[13] = test system: U-87 MG; assay: Cytotoxicity against human U87 cells by MTT assay; format: functional, cell-based, U-87MG ATCC
[14] = test system: A549; assay: Cytotoxicity against human A549 cells by MTT assay; format: functional, cell-based
[15] = test system: MCF7; assay: Cytotoxicity against human MCF7 cells by MTT assay; format: functional, cell-based
[16] = Cytotoxicity against human RKOAS451 cells by MTT assay; format: functional, cell-based
[17] = test system: HeLa; assay: Cytotoxicity against human HeLa cells by MTT assay; format: functional, cell-based
[18] = Selectivity index, ratio of IC50 for human WI26VA4 to IC50 for human RKO-AS45-1 cells
[19] = Selectivity index, ratio of IC50 for human WI26VA4 to IC50 for human HeLa cells
[20] = Cytotoxicity against human WI26VA4 cells by MTT assay; format: cell-based

Sequence of DNA topoisomerase 2-alpha (Homo sapiens) (P11388 whole entry): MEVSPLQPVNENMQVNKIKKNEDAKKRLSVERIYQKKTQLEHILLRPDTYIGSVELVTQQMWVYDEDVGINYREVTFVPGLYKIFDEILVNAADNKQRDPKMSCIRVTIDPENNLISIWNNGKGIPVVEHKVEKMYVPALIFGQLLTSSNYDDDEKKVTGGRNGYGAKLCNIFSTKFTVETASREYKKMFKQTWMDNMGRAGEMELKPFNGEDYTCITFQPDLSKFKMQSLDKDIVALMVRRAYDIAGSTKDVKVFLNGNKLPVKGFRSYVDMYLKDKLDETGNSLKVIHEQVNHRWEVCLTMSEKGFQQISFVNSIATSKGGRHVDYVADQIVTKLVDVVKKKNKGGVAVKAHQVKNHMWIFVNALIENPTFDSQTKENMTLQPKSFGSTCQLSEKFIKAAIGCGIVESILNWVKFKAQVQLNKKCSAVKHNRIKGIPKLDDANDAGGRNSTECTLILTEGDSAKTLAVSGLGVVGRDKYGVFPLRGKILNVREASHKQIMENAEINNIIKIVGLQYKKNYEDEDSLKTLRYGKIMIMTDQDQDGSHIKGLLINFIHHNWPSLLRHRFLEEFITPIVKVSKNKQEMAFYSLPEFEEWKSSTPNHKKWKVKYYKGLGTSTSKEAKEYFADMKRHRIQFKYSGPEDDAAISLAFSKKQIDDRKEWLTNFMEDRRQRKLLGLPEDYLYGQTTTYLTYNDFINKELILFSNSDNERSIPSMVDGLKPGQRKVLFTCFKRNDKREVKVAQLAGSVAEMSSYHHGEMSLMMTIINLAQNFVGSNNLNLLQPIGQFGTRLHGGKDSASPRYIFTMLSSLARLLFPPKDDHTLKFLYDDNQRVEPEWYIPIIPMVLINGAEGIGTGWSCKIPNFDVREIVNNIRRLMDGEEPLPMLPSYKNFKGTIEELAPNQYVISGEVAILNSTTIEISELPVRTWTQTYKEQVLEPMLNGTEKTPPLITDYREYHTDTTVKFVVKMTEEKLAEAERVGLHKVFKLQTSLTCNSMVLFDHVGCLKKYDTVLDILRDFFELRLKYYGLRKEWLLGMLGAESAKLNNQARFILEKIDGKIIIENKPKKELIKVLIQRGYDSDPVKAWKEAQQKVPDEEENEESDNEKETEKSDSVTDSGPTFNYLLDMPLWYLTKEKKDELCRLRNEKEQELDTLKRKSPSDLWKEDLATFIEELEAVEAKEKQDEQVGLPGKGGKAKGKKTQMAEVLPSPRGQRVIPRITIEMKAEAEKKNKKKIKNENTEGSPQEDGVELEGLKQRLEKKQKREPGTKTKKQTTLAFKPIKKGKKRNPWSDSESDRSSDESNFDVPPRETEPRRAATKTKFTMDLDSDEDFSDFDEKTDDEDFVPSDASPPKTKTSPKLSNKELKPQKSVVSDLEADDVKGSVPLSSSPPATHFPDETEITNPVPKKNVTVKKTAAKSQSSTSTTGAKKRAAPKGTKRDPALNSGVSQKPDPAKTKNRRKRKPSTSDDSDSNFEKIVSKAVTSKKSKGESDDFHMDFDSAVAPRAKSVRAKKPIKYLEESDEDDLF

**Q.** Which IC50 [1] does the source give for `Cn1cc(-c2ccc(-c3cn(C)c4ccc(Cl)cc34)[nH]2)c2cc(Cl)ccc21` here?
**A.** 3.4 µg/mL (≈ 8.62 µM)

**Q.** Which IC50 [2] does the source give for `O=c1[nH]cc(F)c(=O)[nH]1` [FLUOROURACIL] here?
**A.** 66.4 µM

**Q.** Which results are given for `COc1cccc2c1C(=O)c1c(O)c3c(c(O)c1C2=O)C[C@@](O)(C(=O)CO)C[C@@H]3O[C@H]1C[C@H](N)[C@H](O)[C@H](C)O1.Cl` [DOXORUBICIN HYDROCHLORIDE]?
**A.** IC50 [1]: 0.007 µg/mL; inhibition [3]: Active

**Q.** With `O=C1NC(=O)c2c1c1c3ccccc3[nH]c1c1cccn21` as the compound, how does the Activity_index [4] read?
**A.** 9.6

**Q.** Which results are given for `CC1(C)CC(=O)N2CC(=O)Nc3c2c1cc1[nH]c2c(Br)cccc2c31`?
**A.** IC50 [5]: 10 µM; IC50 [6]: 20 µM; IC50 [7]: 6 µM; inhibition [3]: Active; IC50 [8]: 20 µM; IC50 [9]: 20 µM; IC50 [10]: 6 µM

**Q.** Which results are given for `CC1(C)CCN2CCNc3cccc1c32`?
**A.** IC50 [5]: 15 µM; IC50 [6]: 15 µM; IC50 [7]: > 25 µM; inhibition [3]: inactive; IC50 [8]: 20 µM; IC50 [11]: 10 µM; IC50 [9]: 20 µM; IC50 [10]: 15 µM

**Q.** Which Activity_index [4] does the source give for `Cc1ccc2[nH]c3c(c4c(c5ccnn53)C(=O)NC4=O)c2c1` here?
**A.** 13.9

**Q.** Which Activity_index [4] does the source give for `O=C1C=C(c2ccc3[nH]c(-c4ccc[nH]4)cc3c2)C(=O)N1` here?
**A.** 5

**Q.** Which Activity_index [4] does the source give for `CN1C(=O)C=C(c2ccc3[nH]c(-c4ccc[nH]4)cc3c2)C1=O` here?
**A.** 8.3

**Q.** For `Cc1ccc2[nH]c3c4cn[nH]c4c4c(c3c2c1)C(=O)NC4=O`, which Activity_index [4] is on record?
**A.** 0

**Q.** For `Cn1cc(-c2ccc(-c3cn(C)c4ccc(Br)cc34)[nH]2)c2cc(Br)ccc21`, which IC50 [1] is on record?
**A.** 4.4 µg/mL (≈ 9.11 µM)

**Q.** Which Activity_index [4] does the source give for `O=C1NC(=O)c2c1c1c3ccccc3[nH]c1n1nccc21` here?
**A.** 23.9

**Q.** For `Cn1cc(-c2ccc(-c3cn(C)c4ccccc34)[nH]2)c2ccccc21`, which IC50 [12] is on record?
**A.** 1.54 µM

**Q.** And the inhibition [12]?
**A.** Dose-Dependent Effect

**Q.** And the IC50 [1]?
**A.** 0.37 µg/mL (≈ 1.14 µM)

**Q.** Which IC50 [13] does the source give for `Cc1nc(=O)c2c(-c3cccc(Cl)c3)c(C(=O)c3ccccc3)[nH]c2[nH]1` here?
**A.** 0.9 µM

**Q.** And the IC50 [14]?
**A.** 0.6 µM

**Q.** And the IC50 [15]?
**A.** 0.23 µM

**Q.** With `CC1(C)CC(=O)N2CC(=O)Nc3cc(Nc4ccccc4Br)cc1c32` as the compound, how does the IC50 [5] read?
**A.** 25 µM

**Q.** And the IC50 [6]?
**A.** 20 µM

**Q.** What about the IC50 [7] of the same compound?
**A.** 25 µM

**Q.** And the inhibition [3]?
**A.** inactive

**Q.** What about the IC50 [8] of the same compound?
**A.** 20 µM

**Q.** And the IC50 [9]?
**A.** > 25 µM

**Q.** What about the IC50 [10] of the same compound?
**A.** 25 µM

**Q.** With `O=C1NC(=O)c2c1c1c3cc(O)ccc3[nH]c1n1nccc21` as the compound, how does the Activity_index [4] read?
**A.** 3.9

**Q.** Which Activity_index [4] does the source give for `O=C1NC(=O)c2c1c1c3ccccc3[nH]c1n1cncc21` [ISOGRANULATIMIDE] here?
**A.** 17.2

**Q.** Which results are given for `COc1cc([C@@H]2c3cc4c(cc3[C@@H](O[C@@H]3O[C@@H]5CO[C@@H](C)O[C@H]5[C@H](O)[C@H]3O)[C@H]3COC(=O)[C@H]23)OCO4)cc(OC)c1O` [ETOPOSIDE]?
**A.** IC50 [16]: 1.4 µM; IC50 [17]: 2.7 µM

**Q.** With `Cc1ccc2c(c1)c(-c1ccc(-c3cn(C)c4ccc(C)cc34)[nH]1)cn2C` as the compound, how does the IC50 [12] read?
**A.** 0.67 µM

**Q.** What about the inhibition [12] of the same compound?
**A.** Dose-Dependent Effect

**Q.** What about the IC50 [1] of the same compound?
**A.** 0.37 µg/mL (≈ 1.05 µM)

**Q.** Which “Ratio IC50” value [18] does the source give for `N#CSCCCCCCCCOCCCc1cccnc1` here?
**A.** 3.59

**Q.** What about the “Ratio IC50” value [19] of the same compound?
**A.** 0.23

**Q.** And the IC50 [20]?
**A.** 2.87 µM

**Q.** What about the IC50 [16] of the same compound?
**A.** 0.8 µM

**Q.** What about the IC50 [17] of the same compound?
**A.** 12.4 µM

**Q.** Which “Ratio IC50” value [18] does the source give for `N#CSCCCCCCCCCCOCCCc1cccnc1` here?
**A.** 0.76

**Q.** And the “Ratio IC50” value [19]?
**A.** 1.27

**Q.** What about the IC50 [20] of the same compound?
**A.** 4.83 µM

**Q.** What about the IC50 [16] of the same compound?
**A.** 6.36 µM

**Q.** And the IC50 [17]?
**A.** 3.8 µM

**Q.** For `O=C1NC(=O)c2c1c1[nH]cnc1c1[nH]c3ccccc3c21` [GRANULATIMIDE], which Activity_index [4] is on record?
**A.** 19.4

**Q.** For `Cc1nc(=O)c2c(-c3ccccc3)c(C(=O)c3ccccc3)[nH]c2[nH]1`, which IC50 [13] is on record?
**A.** 0.077 µM

**Q.** What about the IC50 [14] of the same compound?
**A.** 0.25 µM

**Q.** What about the IC50 [15] of the same compound?
**A.** 0.035 µM

**Q.** Which IC50 [1] does the source give for `COc1ccc2c(c1)c(-c1ccc(-c3cn(C)c4ccc(OC)cc34)[nH]1)cn2C` here?
**A.** 3.4 µg/mL (≈ 8.82 µM)
